Numbering of substitutions follows the chain as printed. Read-outs that look alike come from different tables or passages of the source.
What was measured:
OCT1*8 (Arg488Met) = molecular target: T1, OCT1*8 (Arg488Met) (Homo sapiens, UniProt O15245, L160F/R488M); conditions: not statistically significant (P = 0.5)
T1 sequence (O15245 1-554 L160F/R488M): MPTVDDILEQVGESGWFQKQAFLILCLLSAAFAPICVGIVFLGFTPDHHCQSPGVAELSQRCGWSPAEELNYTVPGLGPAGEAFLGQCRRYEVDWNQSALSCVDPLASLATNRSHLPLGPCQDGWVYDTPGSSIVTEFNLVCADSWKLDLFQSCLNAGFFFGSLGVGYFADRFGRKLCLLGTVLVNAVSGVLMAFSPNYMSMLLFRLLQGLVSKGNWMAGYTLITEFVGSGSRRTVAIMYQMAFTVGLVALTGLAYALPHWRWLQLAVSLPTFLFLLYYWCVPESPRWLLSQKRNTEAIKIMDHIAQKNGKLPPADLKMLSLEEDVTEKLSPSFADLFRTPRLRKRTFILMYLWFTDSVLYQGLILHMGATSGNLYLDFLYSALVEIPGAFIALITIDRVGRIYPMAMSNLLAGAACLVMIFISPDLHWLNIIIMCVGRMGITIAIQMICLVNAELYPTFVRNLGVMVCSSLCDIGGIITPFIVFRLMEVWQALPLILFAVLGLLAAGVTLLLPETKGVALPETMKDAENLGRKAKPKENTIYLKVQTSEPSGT
Source text: (§1) HEK293 or CHO cells overexpressing the human OCT1 alleles *1A (characterized by the amino acid substitution Met408Val), *1B, *1C (Phe160Leu), *1D (Pro341Leu/Met408Val), *2 (Met420del), *3 (Arg61Cys), *4 (Gly401Ser), *5 (Gly465Arg/Met420del), *6 (Cys88Arg/Met420del), *7 (Ser14Phe), *8A (Arg488Met), *8B (Arg488Met/Met408Val), *9 (Pro117Leu), *10 (Ser189Leu), *11 (Ile449Thr), *12 (Ser29Leu), or *13 (Thr245Met), the human OCT2 reference and variant alleles (Ala270Ser), human OCT3, and the control cells (transfected with the empty pcDNA5 vector) were generated by targeted chromosomal integration using the Flp-In™ System (Life Technologies, Darmstadt, Germany).
(§2) Six hundred thousand HEK293 or CHO cells were plated per well in 12-well plates (pre-coated with poly-D-lysine) and were grown for 48 hours to reach confluence. Cells were kept at 37°C and 5% CO2 in DMEM (HEK293) or RPMI (CHO), supplemented with 10% FCS, 100 U/ml penicillin, and 100 μg/ml streptomycin. Uptake experiments were performed at pH 7.4 using HBSS supplemented with 10 mM HEPES buffer (herein referred to as HBSS+). […]
(§3) For all transport measurements, the intracellular amount of substrate was normalized to the total amount of protein of the sample as measured using the bicinchoninic acid assay [49].
(§4) For quantification of intracellular substrates, the cell debris were removed by centrifugation at 17,000 x g for 10 min. […]

OCT1*2 (Met420del) [1] = molecular target: T2, OCT1*2 (Met420del) (Homo sapiens, UniProt O15245, DEL420-420/L160F)
T2 sequence (O15245 with tags, fused parts or gaps L160F/DEL420-420): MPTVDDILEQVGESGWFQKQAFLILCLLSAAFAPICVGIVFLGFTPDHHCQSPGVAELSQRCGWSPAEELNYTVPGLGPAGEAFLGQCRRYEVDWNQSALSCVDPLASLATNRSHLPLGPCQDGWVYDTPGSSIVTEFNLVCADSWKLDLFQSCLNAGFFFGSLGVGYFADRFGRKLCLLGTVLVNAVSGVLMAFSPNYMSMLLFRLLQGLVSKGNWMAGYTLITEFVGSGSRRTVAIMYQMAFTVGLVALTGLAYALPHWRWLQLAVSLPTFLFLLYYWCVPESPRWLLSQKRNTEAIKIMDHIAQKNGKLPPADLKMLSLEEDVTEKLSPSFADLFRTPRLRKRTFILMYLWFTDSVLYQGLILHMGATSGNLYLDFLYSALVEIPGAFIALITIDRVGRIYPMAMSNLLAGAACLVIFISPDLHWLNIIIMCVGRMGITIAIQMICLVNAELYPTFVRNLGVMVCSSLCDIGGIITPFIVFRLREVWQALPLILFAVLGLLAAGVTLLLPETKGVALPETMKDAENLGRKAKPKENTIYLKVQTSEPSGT
Source text: as §1, §2, §3, §4

OCT1*1A (Met408Val) = molecular target: T3, OCT1*1A (Met408Val) (Homo sapiens, UniProt O15245, L160F/M408V); conditions: 1 and 10 μM ranitidine, 2 min
T3 sequence (O15245 1-554 L160F/M408V): T1 sequence (O15245 1-554 L160F/R488M) with M408V, M488R
Source text: as §1, §2, §3, §4

OCT2 = molecular target: T4, OCT2 (Homo sapiens, UniProt O15244, S270A); assay: Ranitidine uptake in HEK293 cells overexpressing OCT2 reference (Ala270); format: in vitro ADME; conditions: 1 μM ranitidine, 2 min
T4 construct: expressed in transfected cells; host or cells: HEK293 T-REx (Flp-In)
T4 sequence (O15244 1-555 S270A): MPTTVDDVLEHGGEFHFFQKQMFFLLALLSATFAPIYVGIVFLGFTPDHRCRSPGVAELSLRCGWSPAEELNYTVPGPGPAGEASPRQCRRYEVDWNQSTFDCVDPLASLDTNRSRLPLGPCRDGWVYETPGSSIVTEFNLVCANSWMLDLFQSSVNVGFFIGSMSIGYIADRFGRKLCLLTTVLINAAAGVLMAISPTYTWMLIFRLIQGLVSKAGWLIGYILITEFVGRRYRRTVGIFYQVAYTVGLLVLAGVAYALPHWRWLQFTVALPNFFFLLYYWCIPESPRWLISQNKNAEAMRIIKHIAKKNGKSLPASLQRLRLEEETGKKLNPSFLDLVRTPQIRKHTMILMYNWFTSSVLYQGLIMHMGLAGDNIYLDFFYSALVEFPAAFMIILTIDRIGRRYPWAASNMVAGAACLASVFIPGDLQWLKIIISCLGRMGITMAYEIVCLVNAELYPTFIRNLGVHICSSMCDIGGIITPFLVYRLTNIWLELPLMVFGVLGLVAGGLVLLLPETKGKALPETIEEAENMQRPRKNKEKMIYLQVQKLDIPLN
Source text: as §1, §2, §3, §4

[2] = Estimated ranitidine concentrations in portal vein and gastrointestinal tract; parameters: species or system human; conditions: highest clinical dose (300 mg) in a volume of 250 ml
Source text: The concentrations were chosen to be representative for the maximal unbound plasma (Cmax) and the estimated maximal unbound portal vein concentration (Cmax port).

OCT1*2 (Met420del) [3] = molecular target: T2, OCT1*2 (Met420del); assay: Inhibition by ranitidine of OCT1-mediated substrate uptake, OCT1*2 allele, HEK293 cells; format: cell-based; parameters: expressed in transfected cells; host or cells: HEK293 T-REx (Flp-In)
Source text: as §1
Cells were kept at 37°C and 5% CO2 in DMEM (HEK293) or RPMI (CHO), supplemented with 10% FCS, 100 U/ml penicillin, and 100 μg/ml streptomycin. Uptake experiments were performed at pH 7.4 using HBSS supplemented with 10 mM HEPES buffer (herein referred to as HBSS+). Cells were washed once with 1 ml pre-warmed HBSS+ buffer (37°C). […] Cells were washed twice with 2 ml ice-cold HBSS+ and lysed in 500 μl lysis buffer.
The intracellular concentration of MPP^+ was determined using liquid scintillation counting of radioactively labeled substrate. To this end, 400 μl cell lysate was measured with 9 ml Aquasafe Plus liquid scintillator using the Scintillation Counter LS6500 (Beckman Coulter, Krefeld, Germany). Intracellular ASP^+ concentrations were determined using fluorescence spectroscopy.
as §3
For quantification of intracellular substrates, the cell debris were removed by centrifugation at 17,000 x g for 10 min. Four-hundred μl of the supernatant was evaporated to dryness under nitrogen flow at 40°C. The residue was reconstituted in 200 μl 0.1% formic acid and 10 μl were injected into the LC-MS/MS. For the LC-MS/MS analysis an API 4000™ system tandem mass spectrometer (AB SCIEX, Darmstadt, Germany) was used. Samples were separated using a Brownlee SPP RP-Amide Column (4.6x100 mm, 2.7 μm; PerkinElmer), with a SecurityGuard C18, 4x2 mm pre-column (Phenomenex, Aschaffenburg, Germany).
Nonlinear regression to the Michaelis-Menten equation was performed to determine Km and vmax using GraphPad Prism version 6 (GraphPad Software Inc., La Jolla, CA, USA). Nonlinear regression to the Hill equation v = vmin+(vmax-vmin)/1+([I]/IC50)^-Hillslope was performed to determine IC50 using SigmaPlot version 12.0 (Systat Software, San Jose, California, USA).

## CNC(=C[N+](=O)[O-])NCCSCc1ccc(CN(C)C)o1 [ranitidine, Ranitidine]
OCT1*8 (Arg488Met)
  increase in vmax compared to the reference allele: 25%
OCT1*2 (Met420del) [1]; OCT1*2
  decrease of vmax compared to the reference allele: more than 50%
OCT1*2 (Met420del) [1]; OCT1*2 Met420del, HEK293, 10-600 μM ranitidine, 2 min
  Vmax (±SEM): 402.04 (±51.24) pmol x min^-1 x mg protein^-1
OCT1*1A (Met408Val)
  uptake of ranitidine compared to the reference allele: no significant difference
OCT2
  ranitidine uptake, OCT2-overexpressing compared to control cells: 3.3 fold
[2]
  [I]2, theoretical maximal gastrointestinal ranitidine concentration after oral administration: 3800 µM
OCT1*2 (Met420del) [3]; human, HEK293 cells overexpressing OCT1*2 (Met420del), pH 7.4, probe metformin (100 μM), substrate 100 μM metformin, OCT1*2, 2 min, HEK293
  IC50 at 2 min: 14.8 µM
OCT1*2 (Met420del) [3]; human, HEK293 cells overexpressing OCT1*2 (Met420del), pH 7.4, probe metformin (100 μM), read-out: inhibition of metformin uptake
  inhibition at 2 min: 50%
OCT1*2 (Met420del) [3]; human, HEK293 cells overexpressing OCT1*2 (Met420del), pH 7.4, probe morphine (0.1 μM), read-out: inhibition of morphine uptake
  inhibition at 2 min: ≤ 30%
OCT1*2 (Met420del) [3]; human, HEK293 cells overexpressing OCT1*2 (Met420del), pH 7.4, high concentrations expected in the gastrointestinal tract, all substrates tested, OCT1*2, read-out: inhibition of substrate uptake
  inhibition at 2 min: > 70%
OCT1*2 (Met420del) [3]; substrate 0.1 μM MPP+, OCT1*2, 2 min, HEK293
  IC50: 34.4 µM
OCT1*2 (Met420del) [3]; substrate 0.1 μM morphine, OCT1*2, 2 min, HEK293
  IC50: 19.5 µM
OCT1*2 (Met420del) [3]; substrate 1 μM ASP+, OCT1*2, 2 min, HEK293
  IC50: 155 µM

— paper PMC5728534 (PLoS ONE, 2017)
